According to article PMC12022909, “A Multicomponent Reaction-Based Platform Opens New Avenues in Aryl Hydrocarbon Receptor Modulation” (ACS Central Science, 2025):
pEC50: −log10 of the molar value. Where two headings read alike, the source gives them in different places.

What was measured:
[1] = molecular target: T1, aryl hydrocarbon receptor (AhR) (Homo sapiens, UniProt P35869); test: AhR/XRE-dependent luciferase reporter gene assay in XRE-HepG2 cells; type: cell-based; conditions: for pEC50: 8 h; for AhR-dependent reporter gene activity on co-treatment with BaP: preliminary data
T1 construct: AhR-dependent reporter gene activity was determined in human HepG2 cells stably transfected with an XRE; endogenous in cells; host or cells: XRE-HepG2 (human HepG2 hepatoma cells stably carrying an XRE-luciferase plasmid)
T1 sequence (P35869 11-848): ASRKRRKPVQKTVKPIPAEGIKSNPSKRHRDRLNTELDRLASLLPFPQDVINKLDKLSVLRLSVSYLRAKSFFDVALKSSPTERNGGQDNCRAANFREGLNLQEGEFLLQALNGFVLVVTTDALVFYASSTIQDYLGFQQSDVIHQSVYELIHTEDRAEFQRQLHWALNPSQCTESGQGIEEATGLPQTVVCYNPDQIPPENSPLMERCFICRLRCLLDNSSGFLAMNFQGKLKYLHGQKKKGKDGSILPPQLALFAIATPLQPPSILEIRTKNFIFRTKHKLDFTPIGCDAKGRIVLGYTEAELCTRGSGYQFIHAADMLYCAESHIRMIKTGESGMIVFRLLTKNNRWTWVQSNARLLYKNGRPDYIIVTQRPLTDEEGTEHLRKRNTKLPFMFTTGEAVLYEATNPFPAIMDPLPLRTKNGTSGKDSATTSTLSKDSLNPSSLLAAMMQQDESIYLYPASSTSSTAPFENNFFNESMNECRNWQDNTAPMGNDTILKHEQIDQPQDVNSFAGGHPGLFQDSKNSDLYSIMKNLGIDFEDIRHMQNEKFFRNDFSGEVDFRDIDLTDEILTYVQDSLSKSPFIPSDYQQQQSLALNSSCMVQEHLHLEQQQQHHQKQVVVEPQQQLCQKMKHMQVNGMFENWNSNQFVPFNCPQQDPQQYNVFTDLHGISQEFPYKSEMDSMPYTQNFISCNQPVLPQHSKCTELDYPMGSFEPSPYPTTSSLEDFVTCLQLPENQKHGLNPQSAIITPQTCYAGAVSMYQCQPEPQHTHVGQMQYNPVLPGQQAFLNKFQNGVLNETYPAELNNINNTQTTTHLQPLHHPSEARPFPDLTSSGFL

HaCaT cells = test: UVA phototoxicity, caspase 3 activity in HaCaT cells; type: cell-based, human; conditions: HaCaT, 1 h, UVA 5 J/cm2
Description: Irradiation with UVA and caspase 3 activity measurement […]
culture media was exchanged with PBS and the cells were sham or UVA (5 J/cm2) irradiated using the BS-02 irradiation chamber (Opsytec Dr. Gröbel, Ettlingen Germany). Media was added to the cells and after 4 h incubation, caspase 3 activity was measured as described previously.[33] Protein quantification was done with the Bio-Rad DC protein assay kit (Bio-Rad Laboratories, Hercules, CA) according to the manufacturer protocol.
We compared the phototoxic potential of five of our test compounds (8, 10, 5b, 5h, 4b) as well as the FDA-approved AhR activator […]
induced caspase activity at a concentration of 100 nM (Figure S36A). At a 10-fold higher concentration (1 µM) two of the test compounds […]
Figure S36. […] For statistical analysis a two-way ANOVA (Tukey post-hoc) was performed and data are shown as mean ± SEM. (*, p ≤ 0.05). […]

[2] = Solubility in the growing media during cytotoxicity testing; type: physicochemical; conditions: concentration of 100 µM
Description: A phosphatidylserine exposure was used to determine cell viability. Cells were washed with PBS, pelleted, and then incubated with annexin binding buffer containing Annexin V-APC (Life Technologies) for 15 min in the dark. Then, samples were analyzed by flow cytometry using FACSCanto II and FACSDiva (BD Biosciences, Franklin Lakes, NJ, USA). Data represents the percentage of non - apoptotic cells (Ann -APC-).
The cytotoxicity of a selection of the synthesized compounds was assessed after 24 hours of treatment in two human cell lines, Jurkat and HEK293T, coming from either tumoral T-cell lymphocytes or non-tumoral embryonic kidney fibroblasts, respectively. […]
the pro-apoptotic activity was not significant below 10 µM for most compounds in both cell lines, except for 5i, 5k and 5l in both cell lines, as well as 9a in Jurkat and 5e HEK293T cells (Figure S35A-B).
Moreover, the cytotoxicity of compounds 4d, 5b, 5h, 8, 10, and 12d at a higher concentration (100 µM) was assessed in both cell lines, Jurkat and HEK293T. The cytotoxicity of compounds 5b, 5h, and 12d could not be properly tested as the compounds were not soluble […]
effects observed for compound 4d in Jurkat cells and compound 8 in HEK293T cells (Figure S35C).
Figure S35. A) Jurkat and B) HEK293T cells were treated with 1 and 10 µM doses of the corresponding compound for 24 hours. Indicated doses of fluorizoline were used as a positive control of cell death. C) Jurkat and HEK293T cells were treated with 100 µM of the corresponding compound for 24 hours. Viability was measured by flow cytometry, and it is expressed as the mean ± SEM (n = 3) of the percentage of non -apoptotic cells (Ann-APC-). * p < 0.05, ** p < 0.01 *** p < […]
(1 picture or pasted object on this page, not shown here)

[3] = XRE-HepG2 cells, unit as in the supplements, read-out: AhR/XRE-dependent luciferase activity EC50
[4] = XRE-HepG2 hepatoma cells, luciferase activity, read-out: AhR/XRE-dependent reporter gene activity (EC50)

| Compound | pEC50 [1, 3] | also measured |
| --- | --- | --- |
| CC1(C)CC(=O)C(c2c3[nH]c4ccccc4c3cc3[nH]c4ccccc4c23)=C(O)C1 [4a] | 5.65 |  |
| O=C1OCC(O)=C1c1c2[nH]c3ccccc3c2cc2[nH]c3ccccc3c12 [4b] | < 5.00 | UVA radiation-induced caspase activity (phototoxicity) (HaCaT cells; 100 nM): neither tapinarof nor our 6-ICZ compounds enhanced; UVA radiation-induced caspase activity (phototoxicity) (HaCaT cells; 1 µM): did not show any signs of phototoxicity; AhR-dependent reporter gene activity on co-treatment with BaP [1]: synergistic effects |
| O=c1oc2ccccc2c(O)c1-c1c2[nH]c3ccccc3c2cc2[nH]c3ccccc3c12 [4c] | 5.35 |  |
| Brc1ccc2[nH]cc(-c3c4[nH]c5ccccc5c4cc4[nH]c5ccccc5c34)c2c1 [5b] | 6.03 | UVA radiation-induced caspase activity (phototoxicity) (HaCaT cells; 100 nM): neither tapinarof nor our 6-ICZ compounds enhanced; UVA radiation-induced caspase activity (phototoxicity) (HaCaT cells; 1 µM): exhibited similar effects to FICZ; solubility in the growing media [2]: not soluble |
| c1ccc2c(-c3c4[nH]c5ccccc5c4cc4[nH]c5ccccc5c34)c[nH]c2c1 [5c] |  | pEC50 [1, 4]: 6.44 |
| c1ccc(-c2[nH]c3ccccc3c2-c2c3[nH]c4ccccc4c3cc3[nH]c4ccccc4c23)cc1 [5f] | 5.93 |  |
| OCc1[nH]c2ccccc2c1-c1c2[nH]c3ccccc3c2cc2[nH]c3ccccc3c12 [5g] | 5.74 |  |
| Cc1cccc2[nH]cc(-c3c4[nH]c5ccccc5c4cc4[nH]c5ccccc5c34)c12 [5h] | 6.24 | UVA radiation-induced caspase activity (phototoxicity) (HaCaT cells; 100 nM): neither tapinarof nor our 6-ICZ compounds enhanced; solubility in the growing media [2]: not soluble |
| Cc1cccc2c(-c3c4[nH]c5ccccc5c4cc4[nH]c5ccccc5c34)c[nH]c12 [5i] | 6.35 |  |
| Cc1[nH]c2ccccc2c1-c1c2c3ccccc3n(C)c2cc2c3ccccc3n(C)c12 [5j] | 5.92 | reduction of activity compared to N,N′-H analog 5e ([1]; from reporter gene EC50 values): 2.3 fold |
| COc1ccc2[nH]c3c(-c4c(C)[nH]c5ccccc45)c4c(cc3c2c1)[nH]c1ccc(OC)cc14 [5l] | 6.20 |  |
| O=C(O)c1ccc2c(-c3c4[nH]c5ccccc5c4cc4[nH]c5ccccc5c34)c[nH]c2c1 [5m] | < 5.00 |  |
| CS(=O)(=O)Nc1ccc(-c2ccc3[nH]cc(-c4c5[nH]c6ccccc6c5cc5[nH]c6ccccc6c45)c3c2)cc1 [9a] | 7.00 |  |
| Cc1ccc(C#Cc2ccc3[nH]cc(-c4c5[nH]c6ccccc6c5cc5[nH]c6ccccc6c45)c3c2)cc1 [9b] | < 5.00 | AhR-dependent reporter gene activity on co-treatment with BaP [1]: synergistic effects |
| CCCCCNC(=O)c1ccc2c(-c3c4[nH]c5ccccc5c4cc4[nH]c5ccccc5c34)c[nH]c2c1 [12a] |  | pEC50 [1, 4]: 6.40 |
| O=C(NCCCCCCCCCCNC(=O)c1ccc2c(-c3c4[nH]c5ccccc5c4cc4[nH]c5ccccc5c34)c[nH]c2c1)c1ccc2c(-c3c4[nH]c5ccccc5c4cc4[nH]c5ccccc5c34)c[nH]c2c1 [12c] | 5.22 |  |
| O=C(NCCCOCCOCCOCCCNC(=O)c1ccc2c(-c3c4[nH]c5ccccc5c4cc4[nH]c5ccccc5c34)c[nH]c2c1)c1ccc2c(-c3c4[nH]c5ccccc5c4cc4[nH]c5ccccc5c34)c[nH]c2c1 [12d] | < 5.00 | solubility in the growing media [2]: not soluble |
| Clc1cc2c(cc1Cl)Oc1cc(Cl)c(Cl)cc1O2 [TCDD, 2,3,7,8-tetrachlorodibenzodioxin, reference compound] | 8.52 |  |
| CC(C)c1c(O)cc(/C=C/c2ccccc2)cc1O [Tapinarof, tapinarof, reference compound] |  | UVA radiation-induced caspase activity (phototoxicity) (HaCaT cells; 100 nM): neither tapinarof nor our 6-ICZ compounds enhanced; UVA radiation-induced caspase activity (phototoxicity) (HaCaT cells; 1 µM): did not show any signs of phototoxicity |
